According to patent publication US11932623B2, “Uracil compounds and use thereof” (Sumitomo Chemical Company, Limited, priority 2018, dated 2024):

Tests used:
Type in all cases: in vivo
[1] = tested on: corn; experiment: Test Example 1: post-emergence foliar spray pot test, safety against useful plants (phytotoxicity); conditions: for Corn (phytotoxicity score): foliar spray 204 L/ha on plants grown 15 days, assessed after 11 days in greenhouse
Description: Further, Test Examples are used to show an efficacy of the compound A on controlling weeds and safety against useful plants (phytotoxicity)
(§1) In the Test Examples as described below, for the assessment of weeds-controlling efficacy, the efficacy is defined as “0” if the condition of budding or growth of test pants in the treated area indicates little or no difference compared to that of the untreated area at the time of the investigation.
(§2) The “untreated group” represents a group where a similar treatment procedure to that of the treated group except not using the compound A is done.
(§3) A plastic pot was filled with soil. Ivyleaf morning glory (Ipomoea hederacea), Redroot pigweed (Amaranthus retroflexus) and corn were seeded to the plastic pot, and the plants are grown in a greenhouse for 15 days. A prescribed amount of the formulation prepared by the method of the formulation example 1 was diluted with water containing 1% of Agridex (registered trademark) to obtain a diluted solution. The diluted solution was uniformly sprayed at a rate of 204 L/ha from the upper side of the plants such that the applied dose of the compound A was made to 20 gai/ha or 10 gai/ha. Thereafter, the plants were grown in a greenhouse for 11 days, and the control efficacies were assessed by the above-mentioned method. The results are shown in [Table 1].
(§4) The comparative test was conducted by using the compound B in place of the compound A according to a similar method to that described in the Test example 1.

[2] = tested on: Ivyleaf morning glory (Ipomoea hederacea); experiment: Test Example 1: post-emergence foliar spray pot test, weed control efficacy; conditions: for efficacy on controlling weeds against Ivyleaf morning glory (Ipomoea hederacea), in words: 20 or 10 gai/ha; for control efficacy, Ipomoea hederacea: foliar spray 204 L/ha on plants grown 15 days, assessed after 11 days in greenhouse, scale 0 to 100 (all dead)
Description: as §1, §2, §3, §4

[3] = tested on: Redroot pigweed (Amaranthus retroflexus); experiment: as above; conditions: for efficacy on controlling weeds against Redroot pigweed (Amaranthus retroflexus), in words: 20 or 10 gai/ha; for control efficacy, Amaranthus retroflexus: foliar spray 204 L/ha on plants grown 15 days, assessed after 11 days in greenhouse
Description: as §1, §2, §3, §4

[4] = applied dose 10 gai/ha, scale 0 to 100 (all dead)
[5] = applied dose 20 gai/ha, scale 0 (no difference to untreated) to 100 (all dead)

| SMILES | phytotoxicity against corn, in words ([1]; in vivo) | efficacy on controlling weeds against Ivyleaf morning glory (Ipomoea hederacea), in words [2] | control efficacy, Ipomoea hederacea ([2]; applied dose 10 gai/ha) | control efficacy, Ipomoea hederacea ([2]; applied dose 20 gai/ha) | efficacy on controlling weeds against Redroot pigweed (Amaranthus retroflexus), in words [3] | control efficacy, Amaranthus retroflexus [3, 4] | control efficacy, Amaranthus retroflexus [3, 5] | phytotoxicity against corn, in words ([1]; 20 or 10 gai/ha) | Corn (phytotoxicity score) [1, 4] | Corn (phytotoxicity score) [1, 5] |
| --- | --- | --- | --- | --- | --- | --- | --- | --- | --- | --- |
| CCOC(=O)COc1ncccc1Oc1cc(-n2c(=O)cc(C(F)(F)F)n(C)c2=O)c(Cl)cc1Cl [Compound A] | low phytotoxicity | high efficacies | 100 | 100 | high efficacies | 100 | 100 | – | – | – |
| CCOC(=O)COc1ncccc1Oc1cc(-n2c(=O)cc(C(F)(F)F)n(C)c2=O)c(F)cc1Cl [Compound B] | – | high efficacies | 100 | 100 | high efficacies | 100 | 100 | high phytotoxicity | 100 | 100 |
